In patent US20230114241A1, “METHODS OF TREATING EPILEPSY USING THE SAME” (Trevena, Inc., priority 2019, published 2023):

What was measured:
[1] = biological target: T1, human sphingosine-1-phosphate receptor 1 (S1P1) (Homo sapiens, UniProt P21453); test: Inhibition of cAMP production (HTRF cAMP HiRange), S1P1 CHO-K1 cells; format: cell-based; details: for Emax: CHO-K1, efficacy normalized to maximum efficacy of fingolimod, read-out: hS1P1 CAMP SPAN; for EC50: read-out: hS1P1 CAMP pEC50 (converted)
Procedure, shortened: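 CHO-K1 cells co-expressing human S1P1 (C-terminal ProLink tag) and EA-β-arrestin2, plated overnight; after 30 min compound incubation at 37 °C, intracellular cAMP measured by HTRF TR-FRET following 1 h at room temperature. Values normalized to fingolimod.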
Target sequence in this assay (P21453 whole entry): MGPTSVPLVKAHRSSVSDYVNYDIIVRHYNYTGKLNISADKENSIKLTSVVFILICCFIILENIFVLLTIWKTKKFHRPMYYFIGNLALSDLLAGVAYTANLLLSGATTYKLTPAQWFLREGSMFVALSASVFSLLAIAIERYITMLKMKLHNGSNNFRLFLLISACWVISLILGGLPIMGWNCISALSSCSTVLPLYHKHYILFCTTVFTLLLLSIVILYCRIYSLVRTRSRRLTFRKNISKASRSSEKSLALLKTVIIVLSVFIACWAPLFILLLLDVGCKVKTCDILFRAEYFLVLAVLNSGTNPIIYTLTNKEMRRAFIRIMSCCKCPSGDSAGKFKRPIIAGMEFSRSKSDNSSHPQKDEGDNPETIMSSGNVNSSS

[2] = biological target: T1, human sphingosine-1-phosphate receptor 1 (S1P1); test: β-Arrestin2 recruitment assay (PathHunter), S1P1 CHO-K1 cells; format: cell-based; details: for Emax: efficacy normalized to maximum efficacy of fingolimod, read-out: hS1P1 B-arrestin2 SPAN; for EC50: β-arrestin2 recruitment, read-out: hS1P1 B-arrestin2 pEC50 (converted)
Procedure, shortened: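 CHO-K1 cells co-expressing EA-β-arrestin2 and ProLink-tagged human S1P1 plated overnight, then stimulated 60 min at 37 °C. Enzyme-fragment complementation (β-galactosidase) detected after 1 h at room temperature by luminescence; values normalized to fingolimod.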
Target sequence in this assay (P21453 whole entry): as above
Target sequence in this assay (P32121 whole entry partner): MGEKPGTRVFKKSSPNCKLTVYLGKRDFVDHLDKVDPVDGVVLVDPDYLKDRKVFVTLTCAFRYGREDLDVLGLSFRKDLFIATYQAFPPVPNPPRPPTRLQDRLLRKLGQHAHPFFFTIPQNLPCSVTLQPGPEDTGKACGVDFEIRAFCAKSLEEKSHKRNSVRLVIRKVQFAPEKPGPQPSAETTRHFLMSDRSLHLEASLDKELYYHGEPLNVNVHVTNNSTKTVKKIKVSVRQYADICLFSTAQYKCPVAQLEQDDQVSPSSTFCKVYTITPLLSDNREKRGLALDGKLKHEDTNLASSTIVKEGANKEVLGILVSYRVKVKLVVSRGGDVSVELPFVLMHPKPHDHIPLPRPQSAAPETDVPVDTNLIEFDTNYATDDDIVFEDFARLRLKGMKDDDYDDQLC

[3] = biological target: human sphingosine-1-phosphate receptor 2 (S1P2) (Homo sapiens, UniProt O95136); test: Selectivity: inositol monophosphate production (IP-one), S1P2 CHO-K1 cells; format: cell-based; details: for Emax: CHO-K1, efficacy normalized to maximal efficacy of CYM5520, read-out: hS1P2 IP-one SPAN; for EC50: inositol monophosphate accumulation, read-out: hS1P2 IP-one pEC50 (converted)
Description: (§1) Cell Culturing and Assay Plating Cell lines were cultured in AssayComplete™ Media 6 (DiscoverX Corporation, Cat #: 920018GF2) at 37° C. and 5% CO2 in a humidified CO2 and temperature-controlled incubator. To begin assay plating, cells were washed with Dulbecco's phosphate buffered saline (CellGro, Cat #: 21-031-CV) and lifted from the culturing flask by incubation (37° C., 5 min) with CellStripper (Cellgro, Cat #: 25-056-CI). […] Plated cells were incubated overnight at 37° C. and 5% CO2 in a humidified CO2 and temperature-controlled incubator. Detecting Inhibition of cAMP Production
S1P2 Agonist-promoted G-protein responses were determined by measuring changes in intracellular inositol monophosphate using the IP-one TB kit (CisBio, Cat #: 62IPAPEJ) based on time-resolved fluorescence resonance energy transfer (TR-FRET) technology. AssayComplete™ Cell Plating 2 Reagent was removed and replaced with 1× IP-one stimulation buffer (as per manufacturer's instructions) along with test or control compounds at the desired concentrations.
Following a 60-minute incubation at 37° C. and 5% CO2 in a humidified CO2 and temperature-controlled incubator, the components of the IP-one TB kit were added as per the manufacturer's instructions. After an hour incubation at room temperature, plates were analyzed by a BMG PheraStar microplate reader.
(§2) These values are normalized to fimgolimod, a known agonist of the sphingosine-1-phosphate 3 and 5 receptor or CYM5520, a known agonist of the sphingosine-1-phosphate 2 receptor. The tables also include potency values (pEC50) for modulating discrete receptor-mediated activities (inhibition of cAMP production or inositol monophosphate accumulation).

[4] = biological target: human sphingosine-1-phosphate receptor 3 (S1P3) (Homo sapiens, UniProt Q99500); test: Selectivity: inhibition of cAMP production (HTRF), S1P3 CHO-K1 cells; format: cell-based; details: for Emax: CHO-K1, efficacy normalized to maximal efficacy of fimgolimod, read-out: hS1P3 cAMP SPAN; for EC50: inhibition of cAMP production, read-out: hS1P3 cAMP pEC50 (converted)
Description: as §1
(§3) S1P3 and S1P5 Agonist-promoted G-protein responses were determined by measuring changes in intracellular cAMP using the HTRF® cAMP HiRange kit (CisBio, Cat #: 62AM6PEJ) based on time-resolved fluorescence resonance energy transfer (TR-FRET) technology. […] Following a 30-minute room temperature incubation the components of the cAMP HiRange kit were added as per the manufacturer's instructions. After an hour incubation at room temperature, plates were analyzed by a BMG PheraStar microplate reader.
as §2

[5] = biological target: sphingosine-1-phosphate receptor 5 (S1P5) (Homo sapiens, UniProt Q9H228); test: Selectivity: inhibition of cAMP production (HTRF), S1P5 CHO-K1 cells; format: cell-based; details: for Emax: CHO-K1, efficacy normalized to maximal efficacy of fimgolimod, read-out: hS1P5 cAMP SPAN; for EC50: inhibition of cAMP production, read-out: hS1P5 cAMP pEC50 (converted)
Description: as §1, §3, §2

[6] = test system: peripheral blood lymphocytes; test: Lymphopenia: peripheral blood lymphocyte counts, acute and chronic s.c. dosing; format: in vivo; details: 6 mg/kg sc, 7 days, c57bl/6 mice
Description: Compounds were tested for changes in peripheral blood lymphocytes in C57bl/6 mice. In acute studies, animals (n=5/group) were dosed subcutaneously with test compound at a dose of 3 mg/kg. Animals were sacrificed at specific time points and […] of whole blood was collected in EDTA (K2) Eppendorf tubes. Blood was stored on ice and shipped immediately overnight delivery to Charles River Laboratories for analysis. CRL ran samples through their WBC/differential panel on an Advia 120 instrument. We received peripheral lymphocyte counts (10^3 cells/μl) for each blood sample. Treatment group means were compared to a vehicle treatment group for statistical significance. In chronic studies, animals (n=6-8/group) were dosed subcutaneously for three to seven days with test compound at doses that were at least 5-fold higher than the efficacious dose in pharmacology/behavioral assays. On the last day, animals were sacrificed 45 minutes to 6 hrs after the final dose. Whole blood was collected and analyzed as described for acute studies. […]

[7] = biological target: hERG channel (Homo sapiens, UniProt Q12809); test: cell-based
[8] = inhibition of cAMP production, potency
[9] = CHO-K1, β-arrestin2 recruitment

human sphingosine-1-phosphate receptor 3 (S1P3), sequence (Q99500 whole entry): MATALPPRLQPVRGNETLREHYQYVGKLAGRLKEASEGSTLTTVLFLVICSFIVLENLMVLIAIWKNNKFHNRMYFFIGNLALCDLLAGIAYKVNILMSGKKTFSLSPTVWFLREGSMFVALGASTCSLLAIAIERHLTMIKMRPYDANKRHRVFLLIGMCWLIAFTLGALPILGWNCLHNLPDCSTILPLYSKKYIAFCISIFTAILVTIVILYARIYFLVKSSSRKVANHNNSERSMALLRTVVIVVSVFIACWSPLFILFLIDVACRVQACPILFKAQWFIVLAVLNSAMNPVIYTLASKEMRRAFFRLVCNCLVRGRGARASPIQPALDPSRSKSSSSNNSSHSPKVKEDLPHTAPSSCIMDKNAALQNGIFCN
human sphingosine-1-phosphate receptor 2 (S1P2), sequence (O95136 whole entry): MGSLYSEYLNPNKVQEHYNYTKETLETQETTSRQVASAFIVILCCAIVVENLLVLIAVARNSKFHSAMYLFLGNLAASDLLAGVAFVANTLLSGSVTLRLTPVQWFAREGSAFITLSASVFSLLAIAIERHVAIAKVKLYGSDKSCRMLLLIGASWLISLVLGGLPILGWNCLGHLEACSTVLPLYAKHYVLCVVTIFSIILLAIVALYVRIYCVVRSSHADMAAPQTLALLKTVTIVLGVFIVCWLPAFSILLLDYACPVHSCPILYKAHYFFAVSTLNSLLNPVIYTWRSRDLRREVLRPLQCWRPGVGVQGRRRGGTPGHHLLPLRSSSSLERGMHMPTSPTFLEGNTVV
sphingosine-1-phosphate receptor 5 (S1P5), sequence (Q9H228 whole entry): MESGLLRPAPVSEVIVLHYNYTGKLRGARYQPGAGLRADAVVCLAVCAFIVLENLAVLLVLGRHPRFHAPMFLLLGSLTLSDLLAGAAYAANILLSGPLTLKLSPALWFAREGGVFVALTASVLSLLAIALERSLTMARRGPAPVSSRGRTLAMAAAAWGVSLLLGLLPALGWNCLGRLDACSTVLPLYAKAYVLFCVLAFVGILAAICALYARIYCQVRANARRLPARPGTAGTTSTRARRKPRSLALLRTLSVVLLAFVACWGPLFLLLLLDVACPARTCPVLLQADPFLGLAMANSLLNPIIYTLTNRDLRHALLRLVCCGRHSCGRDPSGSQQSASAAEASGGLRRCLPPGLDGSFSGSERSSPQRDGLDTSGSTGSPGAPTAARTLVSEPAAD
hERG channel, sequence (Q12809 whole entry): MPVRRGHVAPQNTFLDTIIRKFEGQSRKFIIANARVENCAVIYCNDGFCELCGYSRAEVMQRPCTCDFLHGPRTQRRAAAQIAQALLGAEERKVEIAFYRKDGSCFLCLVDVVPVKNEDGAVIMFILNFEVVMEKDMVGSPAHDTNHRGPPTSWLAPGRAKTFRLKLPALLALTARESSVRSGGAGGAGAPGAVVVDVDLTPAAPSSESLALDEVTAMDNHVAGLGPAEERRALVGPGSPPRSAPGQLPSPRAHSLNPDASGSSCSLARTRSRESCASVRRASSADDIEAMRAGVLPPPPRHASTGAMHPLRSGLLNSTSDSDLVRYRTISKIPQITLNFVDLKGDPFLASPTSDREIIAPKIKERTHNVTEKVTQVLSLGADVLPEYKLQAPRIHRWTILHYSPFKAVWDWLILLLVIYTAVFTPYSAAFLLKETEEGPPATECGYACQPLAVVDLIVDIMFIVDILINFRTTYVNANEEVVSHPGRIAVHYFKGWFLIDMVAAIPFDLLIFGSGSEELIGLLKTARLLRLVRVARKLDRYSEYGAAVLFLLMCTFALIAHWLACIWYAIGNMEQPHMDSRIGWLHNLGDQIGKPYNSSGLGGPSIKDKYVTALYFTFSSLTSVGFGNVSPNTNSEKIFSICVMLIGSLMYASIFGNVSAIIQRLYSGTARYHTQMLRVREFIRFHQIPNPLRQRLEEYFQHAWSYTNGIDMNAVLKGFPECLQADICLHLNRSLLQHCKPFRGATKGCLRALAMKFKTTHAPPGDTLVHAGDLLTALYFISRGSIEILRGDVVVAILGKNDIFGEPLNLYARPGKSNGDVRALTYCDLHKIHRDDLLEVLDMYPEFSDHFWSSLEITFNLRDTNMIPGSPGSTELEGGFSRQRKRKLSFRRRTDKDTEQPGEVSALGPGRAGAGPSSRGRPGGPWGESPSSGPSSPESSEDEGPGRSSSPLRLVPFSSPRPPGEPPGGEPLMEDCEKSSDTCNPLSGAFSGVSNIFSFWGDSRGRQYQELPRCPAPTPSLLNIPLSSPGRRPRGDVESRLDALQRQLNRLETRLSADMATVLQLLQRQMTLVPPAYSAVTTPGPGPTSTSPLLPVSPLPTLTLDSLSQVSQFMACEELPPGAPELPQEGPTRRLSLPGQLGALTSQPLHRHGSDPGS

Row | Compound | Emax ([1]; inhibition of cAMP production) | EC50 [1, 8] | Emax [2, 9] | EC50 ([2]; potency) | Emax [3] | EC50 [3] | Emax [4] | EC50 [4] | Emax [5] | EC50 [5] | Lymphopenia effect (peripheral blood lymphocytes) [6] | Emax [1] | EC50 ([1]; inhibition of cAMP production, S1P1) | Emax ([2]; CHO-K1) | EC50 ([2]; S1P1) | IC50 [7]
1 | CC(C)n1nnc2cc(-c3nc(-c4cccc5c4OCO5)no3)ccc21 [Compound 32, 3-(benzo[d][1,3]dioxol-4-yl)-5-(1-isopropyl-1H-benzo[d][1,2,3]triazol-5-yl)-1,2,4-oxadiazole] | > 75% | < 0.316 µM | < 75% | < 10 µM | < 50% | > 10 µM | < 50% | > 10 µM | < 50% | > 10 µM | no change: 6 mg/kg, 7 days |  |  |  |  | 
2 | COc1ccccc1-c1nc(-c2ccc3c(c2)nnn3C(C)C)no1 [Compound 287, 3-(1-isopropyl-1H-benzo[d][1,2,3]triazol-5-yl)-5-(2-methoxy-phenyl)-1,2,4-oxadiazole] | > 75% | < 0.316 µM | > 75% | < 10 µM | < 50% | > 10 µM | < 50% | > 10 µM | < 50% | > 10 µM | no change: 6 mg/kg, 7 days |  |  |  |  | 
3 | N#Cc1cc(-c2nc(-c3ccc4oc(=O)[nH]c4c3)no2)ccc1NCC1CC1 [Compound 423, 2-((cyclopropyl-methyl)amino)-5-(3-(2-oxo-2,3-dihydrobenzo[d]oxazol-5-yl)-1,2,4-oxadiazol-5-yl)benzonitrile] |  |  |  |  | < 50% | < 10 µM | < 50% | < 10 µM |  |  | no change: 6 mg/kg, 7 days | > 75% | < 0.316 µM | > 75% | < 10 µM | 
4 | Cc1ccccc1-c1nc(-c2ccc3c(c2)nnn3C(C)C)no1 [Compound 99, 3-(1-isopropyl-1H-benzo[d][1,2,3]triazol-5-yl)-5-(o-tolyl)-1,2,4-oxadiazole] | > 75% | < 0.316 µM | > 75% | < 10 µM | < 50% | > 10 µM | < 50% | > 10 µM | > 50% | > 10 µM | no change: 6 mg/kg, 7 days |  |  |  |  | 
5 | CC(C)Oc1ccc(-c2ncc(-c3cccnc3)cn2)cc1C#N [Compound 738, 2-isopropoxy-5-(5-(pyridin-3-yl)pyrimidin-2-yl)benzonitrile] |  |  |  |  |  |  |  |  |  |  |  |  |  |  |  | > 10 µM
